Experimental data from patent publication US20100251436A1, “METHOD FOR GROWING SUGARCANE” (SYNGENTA CROP PROTECTION, INC., priority 2007, published 2010).

System: sugar cane Variety RB 86-7515
Assay: Greenhouse pot test of formulated agrochemicals on vigour (tillers, plant height, leaf width, culm diameter)
Details: for number of tillers in comparison with the control / plant height in comparison with the control: greenhouse, rate of the respective example
Description: 1) carretel with one bud treated with abamectin 2) carretel with one bud treated with abamectin+15% v/v of polymer 3) stalk with 3 buds untreated 4) carretel with one bud untreated 5) carretel with one bud untreated+15% v/v of polymer 6) stalk with 3 buds treated with abamectin.
Twenty 1 L pots were filled with 16 L of clay soil, 1.6 L of sand and 8 g of nitrogen, 28 g of phosphorus (P2O5) and 16 g of potassium (K2O). Six carretels of 4 cm length with only one bud were planted in each pot (treatments 1, 2, 4 and 5). Two stalks with three buds were planted in each control pot (treatments 3 and 6) to simulate conventional planting. A layer of 3 cm of soil was used to cover the carretels. […] The stalks were treated simulating a furrow application at 100 L.ha^−1 of slurry. Experimental design adopted was randomized complete block with four replications. The pots were maintained with adequate moisture during the test. Evaluations of: plant height, leaf width, culm diameter and number of tillers were done at 20, 30 and 42 days after planting.

## O=[N+]([O-])NC1=NCCN1Cc1ccc(Cl)nc1 [Imidacloprid]
Result in words
  number of tillers in comparison with the control: increase

## CN1COCN(Cc2cnc(Cl)s2)/C1=N\[N+](=O)[O-] [Thiamethoxam, thiamethoxam]
Result in words
  number of tillers in comparison with the control: increased
  plant height in comparison with the control: reduced
Result in words, not apparent from the measured parameters
  increase in "quality": greater than the other treatments

## N#Cc1nn(-c2c(Cl)cc(C(F)(F)F)cc2Cl)c(N)c1[S+]([O-])C(F)(F)F (centres unmarked) [Fipronil, fipronil]
Result in words
  number of tillers in comparison with the control: increased
  plant height in comparison with the control: decreased

## CN/C(=N\[N+](=O)[O-])NCc1cnc(Cl)s1 [Clothianidin, clothianidin]
Result in words
  number of tillers in comparison with the control: increased
  plant height in comparison with the control: slight reduction

## abamectin
Abamectin 100 g ai/ha, carretel with one bud, dipped in slurry 3 min, 42 days after planting
  Tillers: 14 number
Result in words
  number of tillers in comparison with the control: increase
  plant height in comparison with the control: decrease
